Patent US10934310B2, “Inhibitors of Bruton's tyrosine kinase and method of their use” (JANSSEN PHARMACEUTICA NV, priority 2015, dated 2021)

target: unphosphorylated-BTK kinase domain (UP-BTK), GST-tagged human BTK (389-659aa) (Homo sapiens (Human), UniProt Q06187); assay: BTK Kinase Lanthascreen Binding Assay; conditions: compound, 50 nM Tracer 236, 2 nM anti-GST antibody, 60 minutes; pIC50 = negative log of the IC50 in molar
Experimental: BTK Kinase Lanthascreen Binding Assay:
A BTK kinase lanthascreen binding assay monitors compound binding to unphosphorylated-BTK kinase domain (UP-BTK), by competing with a fluorescent labeled tracer. […] Data were analyzed using Xlfit™ version 5.3 from ID Business Solutions (Guildford), Microsoft Excel add-in. pIC50 refers to the negative log of the IC50 in molar.

unphosphorylated-BTK kinase domain (UP-BTK), GST-tagged human BTK (389-659aa), sequence (Q06187 389-659): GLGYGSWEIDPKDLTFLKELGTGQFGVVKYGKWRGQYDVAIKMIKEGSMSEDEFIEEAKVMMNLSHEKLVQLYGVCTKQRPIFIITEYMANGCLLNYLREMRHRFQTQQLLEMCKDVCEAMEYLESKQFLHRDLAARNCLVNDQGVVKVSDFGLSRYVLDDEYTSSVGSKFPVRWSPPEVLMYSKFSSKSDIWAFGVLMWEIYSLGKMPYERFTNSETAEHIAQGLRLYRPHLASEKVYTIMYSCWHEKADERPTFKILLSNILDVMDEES

Compound	BTK_I_binding pIC50
C=CC(=O)N[C@H]1CCCC[C@H]1NC(=O)c1sc2nccc3c2c1NC(=O)N3c1ccc(OC(C)C)cc1C (single isomer, unassigned) [Example 174, N-((1R,2S)-2-Acrylamidocyclohexyl)-5-(*R)-(4-isopropoxy-2-methylphenyl)-4-oxo-4,5-dihydro-3H-1-thia-3,5,8-triazaacenaphthylene-2-carboxamide]	8.28
C=CC(=O)N[C@@H]1CC[C@@H](NC(=O)c2sc3nccc4c3c2NC(=O)N4c2ccc(Oc3ccccc3)cc2C)C1 (single isomer, unassigned) [Example 175, N-((1R,3R)-3-Acrylamidocyclopentyl)-5-(*S)-(2-methyl-4-phenoxyphenyl)-4-oxo-4,5-dihydro-3H-1-thia-3,5,8-triazaacenaphthylene-2-carboxamide]	8.05
C=CC(=O)N[C@@H]1CCC[C@H](NC(=O)c2sc3nccc4c3c2NC(=O)N4c2ccc(Oc3ccccc3)cc2C)C1 (single isomer, unassigned) [Example 176, N-((1S,3R)-3-Acrylamidocyclohexyl)-5-(*S)-(2-methyl-4-phenoxyphenyl)-4-oxo-4,5-dihydro-3H-1-thia-3,5,8-triazaacenaphthylene-2-carboxamide]	7.78
CC(=O)N[C@@H]1CCC[C@H](NC(=O)c2sc3nccc4c3c2NC(=O)N4c2ccc(Oc3ccccc3)cc2C)C1 (single isomer, unassigned) [Example 180, N-((1S,3R)-3-Acetamidocyclohexyl)-5-(*S)-(2-methyl-4-phenoxyphenyl)-4-oxo-4,5-dihydro-3H-1-thia-3,5,8-triazaacenaphthylene-2-carboxamide]	7.94
Cc1cc(Oc2ccccc2)ccc1N1C(=O)Nc2c(C(=O)N[C@@H]3CCC[C@@H](N)C3)sc3nccc1c23 (single isomer, unassigned) [Example 181]	7.33
C=CC(=O)N[C@@H]1CCC[C@@H](NC(=O)c2sc3nccc4c3c2NC(=O)N4c2ccc(Oc3ccccc3)cc2C)C1 (single isomer, unassigned) [Example 182, N-((1R,3R)-3-Acrylamidocyclohexyl)-5-(*S)-(2-methyl-4-phenoxyphenyl)-4-oxo-4,5-dihydro-3H-1-thia-3,5,8-triazaacenaphthylene-2-carboxamide]	7.66
C=CC(=O)N[C@@H]1CC[C@H](NC(=O)c2sc3nccc4c3c2NC(=O)N4c2ccc(OC(C)C)cc2C)C1 (single isomer, unassigned) [Example 186, N-((1S,3R)-3-Acrylamidocyclopentyl)-5-(*R)-(4-isopropoxy-2-methylphenyl)-4-oxo-4,5-dihydro-3H-1-thia-3,5,8-triazaacenaphthylene-2-carboxamide]	7.62
C=CC(=O)N[C@@H]1CCC[C@H](NC(=O)c2sc3nccc4c3c2NC(=O)N4c2ccc(OC(C)C)cc2C)C1 (single isomer, unassigned) [Example 190, N-((1S,3R)-3-Acrylamidocyclohexyl)-5-(*R)-(4-isopropoxy-2-methylphenyl)-4-oxo-4,5-dihydro-3H-1-thia-3,5,8-triazaacenaphthylene-2-carboxamide]	7.10
CC(=O)N[C@@H]1CCC[C@@H](NC(=O)c2sc3nccc4c3c2NC(=O)N4c2ccc(Oc3ccccc3)cc2C)C1 (single isomer, unassigned) [Example 195, N-((1R,3R)-3-Acetamidocyclohexyl)-5-(*S)-(2-methyl-4-phenoxyphenyl)-4-oxo-4,5-dihydro-3H-1-thia-3,5,8-triazaacenaphthylene-2-carboxamide]	7.55
C=CC(=O)N[C@H]1CC[C@@H](NC(=O)c2sc3nccc4c3c2NC(=O)N4c2ccc(Oc3ccccc3)cc2C)C1 (single isomer, unassigned) [Example 196, N-((1R,3S)-3-Acrylamidocyclopentyl)-5-(*S)-(2-methyl-4-phenoxyphenyl)-4-oxo-4,5-dihydro-3H-1-thia-3,5,8-triazaacenaphthylene-2-carboxamide]	7.12
C=CC(=O)N[C@@H]1CCC[C@H]1NC(=O)c1sc2nccc3c2c1NC(=O)N3c1cnc(Oc2ccccc2)cc1C (single isomer, unassigned) [Example 200, N-((1R,2R)-2-Acrylamidocyclopentyl)-5-(*S)-(4-methyl-6-phenoxypyridin-3-yl)-4-oxo-4,5-dihydro-3H-1-thia-3,5,8-triazaacenaphthylene-2-carboxamide]	8.18
C=CC(=O)N[C@H]1CCCC[C@H]1NC(=O)c1sc2nccc3c2c1NC(=O)N3c1ccc(OC2CCC2)nc1C (single isomer, unassigned) [Example 204, N-((1R,2S)-2-Acrylamidocyclohexyl)-5-(*S)-(6-cyclobutoxy-2-methylpyridin-3-yl)-4-oxo-4,5-dihydro-3H-1-thia-3,5,8-triazaacenaphthylene-2-carboxamide]	8.03
C=CC(=O)N[C@H]1CCCC[C@H]1NC(=O)c1sc2nccc3c2c1NC(=O)N3c1ccc(OC(C)C)nc1C (single isomer, unassigned) [Example 209, N-((1R,2S)-2-Acrylamidocyclohexyl)-5-(*S)-(6-isopropoxy-2-methylpyridin-3-yl)-4-oxo-4,5-dihydro-3H-1-thia-3,5,8-triazaacenaphthylene-2-carboxamide]	7.31
Cc1cc(Oc2ccccc2)ncc1N1C(=O)Nc2c(C(=O)N[C@@H]3CCC[C@@H]3NC(=O)CCCl)sc3nccc1c23 (single isomer, unassigned) [Example 210, N-((1R,2S)-2-(3-Chloropropanamido)cyclopentyl)-5-(*S)-(4-methyl-6-phenoxypyridin-3-yl)-4-oxo-4,5-dihydro-3H-1-thia-3,5,8-triazaacenaphthylene-2-carboxamide]	7.19
C=CC(=O)N[C@@H]1CCCC[C@H]1NC(=O)c1sc2nccc3c2c1NC(=O)N3c1cnc(Oc2ccccc2)cc1C (single isomer, unassigned) [Example 213, N-((1R,2R)-2-Acrylamidocyclohexyl)-5-(*S)-(4-methyl-6-phenoxypyridin-3-yl)-4-oxo-4,5-dihydro-3H-1-thia-3,5,8-triazaacenaphthylene-2-carboxamide]	7.30
C=CC(=O)N[C@@H]1CCC[C@@H](NC(=O)c2sc3nccc4c3c2NC(=O)N4c2ccc(OC(C)C)cc2C)C1 (single isomer, unassigned) [Example 215, N-((1R,3R)-3-Acrylamidocyclohexyl)-5-(*R)-(4-isopropoxy-2-methylphenyl)-4-oxo-4,5-dihydro-3H-1-thia-3,5,8-triazaacenaphthylene-2-carboxamide]	7.13
C=CC(=O)N[C@@H]1CCC[C@H]1NC(=O)c1sc2nccc3c2c1NC(=O)N3c1cnc(Oc2ccccc2)nc1C (single isomer, unassigned) [Example 219, N-((1R,2R)-2-Acrylamidocyclopentyl)-5-(*S)-(4-methyl-2-phenoxypyrimidin-5-yl)-4-oxo-4,5-dihydro-3H-1-thia-3,5,8-triazaacenaphthylene-2-carboxamide]	7.94
C=CC(=O)N[C@H]1CCCC[C@H]1NC(=O)c1sc2nccc3c2c1NC(=O)N3c1cnc(OC2CCC2)cc1C (single isomer, unassigned) [Example 221, N-((1R,2S)-2-Acrylamidocyclohexyl)-5-(*S)-(6-cyclobutoxy-4-methylpyridin-3-yl)-4-oxo-4,5-dihydro-3H-1-thia-3,5,8-triazaacenaphthylene-2-carboxamide]	8.29
C=CC(=O)N[C@H]1CC[C@H](NC(=O)c2sc3nccc4c3c2NC(=O)N4c2ccc(Oc3ccccc3)cc2C)C1 (single isomer, unassigned) [Example 226, N-((1S,3S)-3-Acrylamidocyclopentyl)-5-(*S)-(2-methyl-4-phenoxyphenyl)-4-oxo-4,5-dihydro-3H-1-thia-3,5,8-triazaacenaphthylene-2-carboxamide]	6.85
Cc1cc(Oc2ccccc2)ccc1N1C(=O)Nc2c(C(=O)N[C@H]3CCC[C@@H](N)C3)sc3nccc1c23 (single isomer, unassigned) [Example 230, N-((1S,3R)-3-Aminocyclohexyl)-5-(*S)-(2-methyl-4-phenoxyphenyl)-4-oxo-4,5-dihydro-3H-1-thia-3,5,8-triazaacenaphthylene-2-carboxamide]	7.24
C=CC(=O)N[C@H]1CCC[C@H](NC(=O)c2sc3nccc4c3c2NC(=O)N4c2ccc(Oc3ccccc3)cc2C)C1 (single isomer, unassigned) [Example 231, N-((1S,3S)-3-Acrylamidocyclohexyl)-5-(*S)-(2-methyl-4-phenoxyphenyl)-4-oxo-4,5-dihydro-3H-1-thia-3,5,8-triazaacenaphthylene-2-carboxamide]	6.56
Cc1cc(Oc2ccccc2)ncc1N1C(=O)Nc2c(C(=O)N[C@@H]3CCC[C@H]3N)sc3nccc1c23 (single isomer, unassigned) [Example 233]	6.85
C=CC(=O)N[C@H]1CCC[C@@H](NC(=O)c2sc3nccc4c3c2NC(=O)N4c2ccc(Oc3ccccc3)cc2C)C1 (single isomer, unassigned) [Example 237, N-((1R,3S)-3-Acrylamidocyclohexyl)-5-(*S)-(2-methyl-4-phenoxyphenyl)-4-oxo-4,5-dihydro-3H-1-thia-3,5,8-triazaacenaphthylene-2-carboxamide]	6.56
C=CC(=O)N[C@H]1CCCC[C@H]1NC(=O)c1sc2nccc3c2c1NC(=O)N3c1ccc(OC(C)C)nc1C (single isomer, unassigned) [Example 238, N-((1R,2S)-2-Acrylamidocyclohexyl)-5-(*R)-(6-isopropoxy-2-methylpyridin-3-yl)-4-oxo-4,5-dihydro-3H-1-thia-3,5,8-triazaacenaphthylene-2-carboxamide]	6.95
